Like-named read-outs stand apart in the source and are kept apart here. Bridge positions count the residues as written; N and C are the ends.
Experiments:
patients with NDM = conditions: cited from earlier work
[1] = test system: DIII S6 and DIV S6 of the sodium channel pore domain; conditions: cited from earlier work
[2] = cited from earlier work
Nav1.5 [3] = conditions: cited from earlier work
Nav1.4 [4] = target: T1, Nav1.4 (Homo sapiens, UniProt P35499); parameters: expressed in transfected cells; host or cells: HEK cells; conditions: cited from earlier work
T1 sequence (P35499 whole entry): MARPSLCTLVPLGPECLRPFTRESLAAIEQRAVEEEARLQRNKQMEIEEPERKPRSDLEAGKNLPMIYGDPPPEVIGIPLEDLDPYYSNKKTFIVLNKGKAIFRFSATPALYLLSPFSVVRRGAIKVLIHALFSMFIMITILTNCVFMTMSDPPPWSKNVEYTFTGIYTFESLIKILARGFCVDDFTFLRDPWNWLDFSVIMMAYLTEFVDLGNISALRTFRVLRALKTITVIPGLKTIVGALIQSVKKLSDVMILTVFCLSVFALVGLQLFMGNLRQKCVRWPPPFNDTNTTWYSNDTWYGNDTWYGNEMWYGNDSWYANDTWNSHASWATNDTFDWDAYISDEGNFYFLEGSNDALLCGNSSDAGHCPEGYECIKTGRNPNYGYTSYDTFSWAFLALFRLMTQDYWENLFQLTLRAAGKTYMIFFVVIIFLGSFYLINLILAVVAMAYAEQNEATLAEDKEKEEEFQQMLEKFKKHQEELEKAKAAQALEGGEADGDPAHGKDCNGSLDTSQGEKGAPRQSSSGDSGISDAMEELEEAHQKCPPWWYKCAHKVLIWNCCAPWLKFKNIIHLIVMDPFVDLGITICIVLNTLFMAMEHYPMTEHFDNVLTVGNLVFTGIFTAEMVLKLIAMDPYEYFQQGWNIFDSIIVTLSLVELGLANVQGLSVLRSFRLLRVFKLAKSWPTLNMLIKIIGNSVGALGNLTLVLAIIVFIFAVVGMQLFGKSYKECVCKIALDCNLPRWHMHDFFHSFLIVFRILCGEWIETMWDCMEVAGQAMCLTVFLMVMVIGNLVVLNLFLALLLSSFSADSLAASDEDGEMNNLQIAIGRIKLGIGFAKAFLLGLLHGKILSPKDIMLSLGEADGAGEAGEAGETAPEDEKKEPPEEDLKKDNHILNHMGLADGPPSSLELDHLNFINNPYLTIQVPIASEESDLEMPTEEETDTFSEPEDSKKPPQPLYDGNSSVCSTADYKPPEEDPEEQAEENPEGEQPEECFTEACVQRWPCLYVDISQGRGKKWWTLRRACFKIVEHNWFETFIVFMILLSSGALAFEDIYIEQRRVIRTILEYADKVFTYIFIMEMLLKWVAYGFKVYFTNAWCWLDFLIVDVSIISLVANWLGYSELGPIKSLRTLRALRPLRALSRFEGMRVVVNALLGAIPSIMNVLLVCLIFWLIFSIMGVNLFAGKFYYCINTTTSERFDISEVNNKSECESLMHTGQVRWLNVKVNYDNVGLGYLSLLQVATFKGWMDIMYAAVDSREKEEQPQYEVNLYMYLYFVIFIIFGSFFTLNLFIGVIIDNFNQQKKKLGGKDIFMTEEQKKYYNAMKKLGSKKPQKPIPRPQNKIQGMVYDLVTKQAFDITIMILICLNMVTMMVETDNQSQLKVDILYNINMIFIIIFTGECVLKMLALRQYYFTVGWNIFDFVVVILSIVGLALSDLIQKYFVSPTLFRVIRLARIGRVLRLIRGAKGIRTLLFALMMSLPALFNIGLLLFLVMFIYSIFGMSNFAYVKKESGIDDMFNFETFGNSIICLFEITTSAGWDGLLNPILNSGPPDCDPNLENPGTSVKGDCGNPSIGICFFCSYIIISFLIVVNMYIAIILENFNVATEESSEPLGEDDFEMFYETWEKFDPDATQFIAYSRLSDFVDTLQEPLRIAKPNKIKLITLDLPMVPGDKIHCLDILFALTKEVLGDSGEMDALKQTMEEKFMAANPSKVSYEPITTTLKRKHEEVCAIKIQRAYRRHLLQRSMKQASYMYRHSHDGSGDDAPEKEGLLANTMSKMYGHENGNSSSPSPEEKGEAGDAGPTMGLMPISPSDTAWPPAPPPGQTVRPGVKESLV

[5] = test system: N-type (Cav2.2) calcium channels; conditions: cited from earlier work
[6] = test system: G-protein-coupled GABAB receptors; conditions: cited from earlier work
Kv1.3 = experiment: Whole-cell patch clamp, Kv1.3 in transfected HEK cells; conditions: 50 μM, room temperature, currents evoked at 0 mV, held at −80 mV
Description: (§1) Plasmids containing sodium channels or potassium channels were transfected into HEK cells (gifted from Rong’s lab at Hunan Normal University, Changsha, China [32]) using Lipofectamine 2000. After 24 h, whole-cell patch clamp recordings were made at room temperature. Using a drawn borosilicate glass electrode (resistance 3–5 MΩ) filled with intracellular solution, the current of the transfected cells was assessed using the MultiClamp 700B amplifier (Molecular Devices, Sunnyvale, America) and pCLAMP 10 software. We set the clamping voltage to −80 mV and the stimulation voltage to 0 mV.
(§2) The extracellular solution used to record the sodium ion channels included the following components (in mM): 150 NaCl, 2 KCl, 1.5 CaCl2, 1 MgCl2, and 10 HEPES, and the pH was adjusted to 7.4 with NaOH. To record the potassium ion channel, the extracellular solution contained (in mM) 140 NaCl, 2 KCl, 1.5 CaCl2, 1 MgCl2, and 10 HEPES, and the pH was adjusted to 7.4 using NaOH. The intracellular solution that recorded the sodium ion channel currents contained 10 mM NaCl, 10 mM EGTA, 135 mM CsCl, and 10 mM HEPES, and the pH was adjusted to 7.3 with CsOH. To record the potassium ion channel currents, the intracellular solution contained 10 mM EGTA, 140 mM KCl, 2.5 mM MgCl2, and 10 mM HEPES, and the pH was adjusted to 7.4 using NaOH.

Kv1.4 = experiment: Whole-cell patch clamp, Kv1.4 in transfected HEK cells; conditions: 50 μM, room temperature, currents evoked at 0 mV, held at −80 mV
Description: as §1, §2

Kv4.2 = experiment: Whole-cell patch clamp, Kv4.2 in transfected HEK cells; conditions: 50 μM, room temperature, currents evoked at 0 mV, held at −80 mV
Description: as §1, §2

Nav1.4 [7] = target: T1, Nav1.4; experiment: Whole-cell patch clamp, Nav1.4 in transfected HEK cells
Description: as §1, §2

Nav1.5 [8] = experiment: Whole-cell patch clamp, Nav1.5 in transfected HEK cells; conditions: room temperature, currents evoked at 0 mV, held at −80 mV
Description: as §1, §2

Nav1.7 = experiment: Whole-cell patch clamp, Nav1.7 in transfected HEK cells; conditions: room temperature, currents evoked at 0 mV, held at −80 mV
Description: as §1, §2

## Cc1cccc(C)c1OCC(C)N (stereo not drawn) [mexiletine]
Patients with NDM; patients with NDM
  effect on muscle stiffness: improving muscle stiffness in patients with NDM
[1]
  binding site on sodium channel: binds to DIII S6 and DIV S6 of the sodium channel pore domain
[2]; sensitivity of different patients varies greatly
  side effects: indigestion

## ATX-II
Nav1.5 [3]
  EC50: 49 nM
Nav1.4 [4]
  EC50: 109 nM

## Vc1.1
[5]
  direct binding to Cav2.2: do not directly bind
  inhibition of Cav2.2 channel function: indirectly inhibit channel function
[6]
  binding to GABAB receptors: binding to G-protein-coupled GABAB receptors

## GEFINGDCELPKVVGPCRAGFRRYYYNSSSKRCEKFIYGGCRGNANNFHTLEECEKVCGVRS (disulfide 8-58, 17-41, 33-54 (inferred)) [Avd3i, U-actitoxin-Avd3i]
Kv1.3
  effect on Kv1.3: no effect
Kv1.4
  effect on Kv1.4: no effect
Kv4.2
  effect on Kv4.2: no effect
Nav1.4 [7]
  IC50: 25400 nM
Nav1.4 [7]; 50.0 μM perfusion, transfected HEK cells, room temperature, holding −80 mV, stimulation 0 mV
  inhibition of Nav1.4 channel at 50.0 μM: suppressed
Nav1.4 [7]; transfected HEK cells, whole-cell patch clamp
  concentration dependence of Nav1.4 inhibition: concentration-dependent manner
Nav1.5 [8]
  effect on Nav1.5: did not inhibit
Nav1.7
  effect on Nav1.7: did not inhibit

## Cc1cccc(C)c1NC(=O)C(C)N (stereo not drawn) [Tocainide, tocainide]
[2]; can be fatal
  side effects: anemia, agranulocytosis, pulmonary fibrosis, interstitial pneumonia, and pulmonary edema

## O=C(NCC1CCCCN1)c1cc(OCC(F)(F)F)ccc1OCC(F)(F)F (stereo not drawn) [flecainide]
Patients with NDM
  efficacy in patients with NDM: effective in some patients with NDM
